# From patent US9624209B2, “Substituted phenylureas and phenylamides as vanilloid receptor ligands” (Gruenenthal GmbH, priority 2009, dated 2017)
# Target: T1, vanilloid receptor 1 (VR1/TRPV1 receptor) (Homo sapiens, UniProt Q8NER1)
# T1 construct: expressed in transfected cells; host or cells: CHO K1 cells (ECACC), stably transfected
# Test: VR1/TRPV1 receptor affinity, capsaicin stimulus (human)
# Format: cell-based, human being
# Parameters: key to (f) Ki (human being) [nM] Cap: result in words: AG=agonist; pAG=partial agonist; NE=no effect
# Conditions: Tables 8-12
# T1 sequence (Q8NER1 whole entry): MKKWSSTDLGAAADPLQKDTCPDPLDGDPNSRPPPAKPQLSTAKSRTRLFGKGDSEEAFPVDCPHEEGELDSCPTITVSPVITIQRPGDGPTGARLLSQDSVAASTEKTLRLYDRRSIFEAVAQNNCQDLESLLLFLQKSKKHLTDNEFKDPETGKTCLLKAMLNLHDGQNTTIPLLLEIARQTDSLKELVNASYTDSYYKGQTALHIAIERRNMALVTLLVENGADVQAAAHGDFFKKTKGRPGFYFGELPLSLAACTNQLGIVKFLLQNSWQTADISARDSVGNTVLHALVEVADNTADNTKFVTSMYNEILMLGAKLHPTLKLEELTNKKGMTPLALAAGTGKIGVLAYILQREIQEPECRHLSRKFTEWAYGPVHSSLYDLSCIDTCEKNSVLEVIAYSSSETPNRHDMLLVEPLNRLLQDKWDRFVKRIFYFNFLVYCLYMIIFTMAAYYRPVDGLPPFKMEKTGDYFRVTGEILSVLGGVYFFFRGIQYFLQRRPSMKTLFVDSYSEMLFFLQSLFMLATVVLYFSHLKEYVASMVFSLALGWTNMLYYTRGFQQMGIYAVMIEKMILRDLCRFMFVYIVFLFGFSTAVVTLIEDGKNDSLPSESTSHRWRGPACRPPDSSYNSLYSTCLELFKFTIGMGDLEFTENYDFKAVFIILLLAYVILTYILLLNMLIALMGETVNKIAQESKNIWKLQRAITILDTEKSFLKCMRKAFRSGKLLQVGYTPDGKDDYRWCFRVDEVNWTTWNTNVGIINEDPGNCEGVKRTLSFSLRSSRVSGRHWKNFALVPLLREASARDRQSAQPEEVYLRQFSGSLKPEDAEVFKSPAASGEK
row,SMILES,(f) Ki (human being) [nM] Cap: result in words
1,"CC(C(=O)NCc1cc(C(C)(C)C)nn1-c1cccc(C(F)(F)F)c1)c1ccc(CO)c(F)c1 (stereo not drawn) [Example A47, N-[[5-tert-Butyl-2-[3-(trifluoromethyl)phenyl]-2H-pyrazol-3-yl]-methyl]-2-[3-fluoro-4-(hydroxymethyl)-phenyl]-propionamide]",AG
2,"CC(C(=O)NCc1cc(C(F)(F)F)nn1-c1cccc(C(F)(F)F)c1)c1ccc(CO)c(F)c1 (stereo not drawn) [Example A48, 2-[3-Fluoro-4-(hydroxymethyl)-phenyl]-N-[[5-(trifluoromethyl)-2-[3-(trifluoromethyl)phenyl]-2H-pyrazol-3-yl]-methyl]-propionamide]",AG
3,"COc1cc(C(C)C(=O)NCc2cc(C(C)(C)C)nn2-c2cccc(Cl)c2)ccc1CO (stereo not drawn) [Example A49, N-[[5-tert-Butyl-2-(3-chlorophenyl)-2H-pyrazol-3-yl]-methyl]-2-[4-(hydroxymethyl)-3-methoxy-phenyl]-propionamide]",AG
4,"CC(O)c1ccc(C(C)C(=O)NCc2cc(C(C)(C)C)nn2-c2cccc(Cl)c2)cc1F (stereo not drawn) [Example A98, N-[[5-tert-Butyl-2-(3-chlorophenyl)-2H-pyrazol-3-yl]-methyl]-2-[3-fluoro-4-(1-hydroxy-ethyl)-phenyl]-propionamide]",AG
5,"CC(C(=O)NCc1cc(C(C)(C)C)nn1-c1cccc(Cl)c1)c1ccc(CCO)c(F)c1 (stereo not drawn) [Example A139, N-[[5-tert-Butyl-2-(3-chlorophenyl)-2H-pyrazol-3-yl]-methyl]-2-[3-fluoro-4-(2-hydroxy-ethyl)-phenyl]-propionamide]",AG
6,"CC(C)(C)c1cc(CNC(=O)Nc2ccc(CCO)c(F)c2)n(-c2cccc(Cl)c2)n1 [Example A140, 1-[[5-tert-Butyl-2-(3-chlorophenyl)-2H-pyrazol-3-yl]-methyl]-3-[3-fluoro-4-(2-hydroxy-ethyl)-phenyl]-urea]",AG
7,"CC(C(=O)NCc1cc(C(C)(C)C)nn1-c1cccc(Cl)c1)c1ccc(C(O)CO)c(F)c1 (stereo not drawn) [Example A145, N-[[5-tert-Butyl-2-(3-chlorophenyl)-2H-pyrazol-3-yl]-methyl]-2-[4-(1,2-dihydroxy-ethyl)-3-fluoro-phenyl]-propionamide]",AG
8,"CC(C(=O)NCc1cc(C(C)(C)C)nn1-c1cccc(Cl)c1)c1ccc(C(O)CO)cc1 (stereo not drawn) [Example A147, N-[[5-tert-Butyl-2-(3-chlorophenyl)-2H-pyrazol-3-yl]-methyl]-2-[4-(1,2-dihydroxy-ethyl)-phenyl]-propionamide]",AG

# Same assay, conditions: Tables 8-12, read-out: (f) Ki (human being) [nM] Cap
row,SMILES,Ki [nM]
1,"CC(C(=O)NCc1cc(C(F)(F)F)nn1-c1cccc(Cl)c1)c1cc(F)c(CO)c(F)c1 (stereo not drawn) [Example A52, N-[[2-(3-Chlorophenyl)-5-(trifluoromethyl)-2H-pyrazol-3-yl]-methyl]-2-[3,5-difluoro-4-(hydroxymethyl)-phenyl]-propionamide]",40
2,"CC(C(=O)NCc1cc(C(F)(F)F)nn1-c1cccc(Cl)c1)c1ccc(CNS(C)(=O)=O)c(F)c1 (stereo not drawn) [Example B1, N-[[2-(3-Chlorophenyl)-5-(trifluoromethyl)-2H-pyrazol-3-yl]-methyl]-2-[3-fluoro-4-(methanesulfonamido-methyl)-phenyl]-propionamide]",5
3,"CC(C(=O)NCc1cc(C(F)(F)F)nn1-c1ccc(F)c(Cl)c1)c1ccc(CNS(C)(=O)=O)c(F)c1 (stereo not drawn) [Example B2, N-[[2-(3-Chloro-4-fluoro-phenyl)-5-(trifluoromethyl)-2H-pyrazol-3-yl]-methyl]-2-[3-fluoro-4-(methanesulfonamido-methyl)-phenyl]-propionamide]",2.4
4,"CC(C(=O)NCc1cc(C(C)(C)C)nn1-c1ccc(F)c(Cl)c1)c1ccc(CNS(C)(=O)=O)c(F)c1 (stereo not drawn) [Example B3, N-[[5-tert-Butyl-2-(3-chloro-4-fluoro-phenyl)-2H-pyrazol-3-yl]-methyl]-2-[3-fluoro-4-(methanesulfonamido-methyl)-phenyl]-propionamide]",3
5,"CC(C(=O)NCc1cc(C(F)(F)F)nn1-c1cccc(Cl)c1)c1ccc(CNS(C)(=O)=O)cc1 (stereo not drawn) [Example B5, N-[[2-(3-Chlorophenyl)-5-(trifluoromethyl)-2H-pyrazol-3-yl]-methyl]-2-[4-(methanesulfonamido-methyl)-phenyl]-propionamide]",9
6,"CC(C(=O)NCc1cc(C(C)(C)C)nn1-c1cccc(Cl)c1)c1ccc(CNS(C)(=O)=O)cc1 (stereo not drawn) [Example B6, N-[[5-tert-Butyl-2-(3-chlorophenyl)-2H-pyrazol-3-yl]-methyl]-2-[4-(methanesulfonamido-methyl)-phenyl]-propionamide]",7
7,"CC(C(=O)NCc1cc(C(F)(F)F)nn1-c1cccc(F)c1)c1ccc(CNS(C)(=O)=O)c(F)c1 (stereo not drawn) [Example B7, 2-[3-Fluoro-4-(methanesulfonamido-methyl)-phenyl]-N-[[2-(3-fluorophenyl)-5-(trifluoromethyl)-2H-pyrazol-3-yl]-methyl]-propionamide]",7
8,"CC(C(=O)NCc1cc(C(F)(F)F)nn1-c1cccc(C(F)(F)F)c1)c1ccc(CNS(C)(=O)=O)c(F)c1 (stereo not drawn) [Example B8, 2-[3-Fluoro-4-(methanesulfonamido-methyl)-phenyl]-N-[[5-(trifluoromethyl)-2-[3-(trifluoromethyl)phenyl]-2H-pyrazol-3-yl]-methyl]-propionamide]",1
9,"CC(C(=O)NCc1cc(C(C)(C)C)nn1-c1cccc(F)c1)c1ccc(CNS(C)(=O)=O)c(F)c1 (stereo not drawn) [Example B9, N-[[5-tert-Butyl-2-(3-fluorophenyl)-2H-pyrazol-3-yl]-methyl]-2-[3-fluoro-4-(methanesulfonamido-methyl)-phenyl]-propionamide]",6
10,"CC(C(=O)NCc1cc(C(C)(C)C)nn1-c1ccc(F)c(F)c1)c1ccc(CNS(C)(=O)=O)c(F)c1 (stereo not drawn) [Example B10, N-[[5-tert-Butyl-2-(3,4-difluoro-phenyl)-2H-pyrazol-3-yl]-methyl]-2-[3-fluoro-4-(methanesulfonamido-methyl)-phenyl]-propionamide]",6
11,"COc1cc(NC(=O)NCc2cc(C(C)(C)C)nn2-c2cccc(Cl)c2)ccc1CNS(C)(=O)=O [Example B11, 1-[[5-tert-Butyl-2-(3-chlorophenyl)-2H-pyrazol-3-yl]-methyl]-3-[4-(methanesulfonamido-methyl)-3-methoxy-phenyl]-urea]",9
12,"COc1cc(NC(=O)NCc2cc(C(F)(F)F)nn2-c2cccc(Cl)c2)ccc1CNS(C)(=O)=O [Example B12, 1-[[2-(3-Chlorophenyl)-5-(trifluoromethyl)-2H-pyrazol-3-yl]-methyl]-3-[4-(methanesulfonamido-methyl)-3-methoxy-phenyl]-urea]",41
13,"CC(C(=O)NCc1cc(C(C)(C)C)nn1-c1cccc(Cl)c1)c1ccc(CNS(C)(=O)=O)c(Cl)c1 (stereo not drawn) [Example B13, N-[[5-tert-Butyl-2-(3-chlorophenyl)-2H-pyrazol-3-yl]-methyl]-2-[3-chloro-4-(methanesulfonamido-methyl)-phenyl]-propionamide]",1
14,"CNCc1ccc(NC(=O)NCc2cc(C(F)(F)F)nn2-c2cccc(Cl)c2)cc1 [Example B14, 1-[[2-(3-Chlorophenyl)-5-(trifluoromethyl)-2H-pyrazol-3-yl]-methyl]-3-[4-(methylamino-methyl)-phenyl]-urea]",64
15,"COc1cccc(-n2nc(C(F)(F)F)cc2CNC(=O)C(C)c2ccc(CNS(C)(=O)=O)c(F)c2)c1 (stereo not drawn) [Example B15, 2-[3-Fluoro-4-(methanesulfonamido-methyl)-phenyl]-N-[[2-(3-methoxyphenyl)-5-(trifluoromethyl)-2H-pyrazol-3-yl]-methyl]-propionamide]",6
16,"CCS(=O)(=O)NCc1ccc(C(C)C(=O)NCc2cc(C(C)(C)C)nn2-c2cccc(Cl)c2)cc1F (stereo not drawn) [Example B16, N-[[5-tert-Butyl-2-(3-chlorophenyl)-2H-pyrazol-3-yl]-methyl]-2-[4-[[(ethylsulfonyl)amino]-methyl]-3-fluoro-phenyl]-propionamide]",2
17,"CCS(=O)(=O)NCc1ccc(C(C)C(=O)NCc2cc(C(F)(F)F)nn2-c2cccc(Cl)c2)cc1F (stereo not drawn) [Example B17, N-[[2-(3-Chlorophenyl)-5-(trifluoromethyl)-2H-pyrazol-3-yl]-methyl]-2-[4-[[(ethylsulfonyl)amino]-methyl]-3-fluoro-phenyl]-propionamide]",3
18,"CC(C(=O)NCc1cc(C(F)(F)F)nn1-c1ccc(Cl)cc1)c1ccc(CNS(C)(=O)=O)c(F)c1 (stereo not drawn) [Example B18, N-[[2-(4-Chlorophenyl)-5-(trifluoromethyl)-2H-pyrazol-3-yl]-methyl]-2-[3-fluoro-4-(methanesulfonamido-methyl)-phenyl]-propionamide]",13
19,"CC(C(=O)NCc1cc(C(F)(F)F)nn1-c1ccc(F)c(F)c1)c1ccc(CNS(C)(=O)=O)c(F)c1 (stereo not drawn) [Example B19, N-[[2-(3,4-Difluoro-phenyl)-5-(trifluoromethyl)-2H-pyrazol-3-yl]-methyl]-2-[3-fluoro-4-(methanesulfonamido-methyl)-phenyl]-propionamide]",6
20,"CC(C(=O)NCc1cc(C(C)(C)C)nn1-c1ccc(Cl)cc1)c1ccc(CNS(C)(=O)=O)c(F)c1 (stereo not drawn) [Example B20, N-[[5-tert-Butyl-2-(4-chlorophenyl)-2H-pyrazol-3-yl]-methyl]-2-[3-fluoro-4-(methanesulfonamido-methyl)-phenyl]-propionamide]",52
21,"CC(C(=O)NCc1cc(C(C)(C)C)nn1-c1ccc(F)cc1)c1ccc(CNS(C)(=O)=O)c(F)c1 (stereo not drawn) [Example B21, N-[[5-tert-Butyl-2-(4-fluorophenyl)-2H-pyrazol-3-yl]-methyl]-2-[3-fluoro-4-(methanesulfonamido-methyl)-phenyl]-propionamide]",30
22,"CC(C(=O)NCc1cc(C(F)(F)F)nn1-c1cccc(Cl)c1)c1ccc(CNS(C)(=O)=O)c(Cl)c1 (stereo not drawn) [Example B22, 2-[3-Chloro-4-(methanesulfonamido-methyl)-phenyl]-N-[[2-(3-chlorophenyl)-5-(trifluoromethyl)-2H-pyrazol-3-yl]-methyl]-propionamide]",3
